{"source": "patent US20030199431A1", "about": "“Modified peptide nucleic acid (PNA) molecules” (priority 1999, published 2003)", "key": {"[1]": {"tested_on": "Enterococcus faecium ATCC 700221", "details": "E. facium strain ATCC 700221"}, "[2]": {"tested_on": "Enterococcus faecium strain 8803", "details": "E. facium strain 8803"}, "[3]": {"tested_on": "Enterococcus faecium ATCC 51550", "details": "E. facium strain ATCC 51550"}, "S. aureus strain 700698R [4]": {"tested_on": "S. aureus strain 700698R", "details": "S. aureus strain ATCC 700698R; additional 24 hours at 35° C."}, "[5]": {"tested_on": "Staphylococcus aureus NCTC 8325", "design": "MIC: unit not given beside the values", "details": "S. aureus strain 8325"}, "S. aureus strain 700698 [6]": {"tested_on": "S. aureus strain 700698", "design": "MIC: unit not given beside the values", "details": "S. aureus strain ATCC 700698"}, "S. aureus strain 700698R [7]": {"tested_on": "S. aureus strain 700698R", "details": "S. aureus strain ATCC 700698R; characteristics of the strain; cited from earlier work"}, "[8]": {"tested_on": "Staphylococcus aureus NCTC 8325", "details": "S. aureus strain 8325; characteristics of the strain; cited from earlier work"}, "S. aureus strain 700698 [9]": {"tested_on": "S. aureus strain 700698", "details": "S. aureus strain ATCC 700698; characteristics of the strain; cited from earlier work"}, "E. coli K12": {"tested_on": "E. coli K12", "type": "cell-based, Escherichia coli"}, "[10]": {"tested_on": "Escherichia coli K12 MG1655", "type": "cell-based", "details": "cultures with 10^4-10^1 cells/ml; 37° C., 16 hours", "source_text": "(§1) The bacterial growth assay is designed to identify modified PNA molecules that inhibit or completely abolish bacterial growth. Growth inhibition results from antisense binding of PNA to mRNA of the targeted gene. The compound tested is present during the entire assay.\n(§2) The experimental bacterial strain used is Escherichia coli K12 MG1655 (E. coli Genentic Stock Center, Yale University, New Haven). The medium for growth is 10% sterile LB (Lurea Bertani) medium. E. coli test cells are pre-cultured in LB medium at 37° C. over night (over night culture). The screen is performed in 96-well microtiter plates at 37° C. with constant shaking. PNAs are dissolved in H2O as a 40×concentrated stock solution.\n(§3) A fresh culture (test culture) is inoculated with an overnight culture and grown to mid-log-phase (OD600=0.1 corresponding to 10^7 cells/ml) at 37° C. The test culture is diluted stepwise in the range 10^5 to 10^1 with 10% LB medium. 195 μl of diluted culture and 5 μl of a 40×concentrated PNA stock solution are added to each test well. 96-well microtiter plates are incubated in a microplate scanning spectrophotometer at 37° C. under constant shaking. OD600 measurements are performed automatically every 3.19 minutes and recorded simultaneously.\nThe assay was performed as follows. […] PNA design no. 2"}, "[11]": {"tested_on": "Escherichia coli K12 MG1655", "type": "cell-based", "details": "cultures with 10^4-10^1 cells/ml; 37° C., 16 hours", "source_text": "as §1, §2, §3\nThe assay was performed as follows.", "remark": "listed apart in the source"}}, "note": "Read-outs that look alike come from different tables or passages of the source."}
{"molecule": "CC[C@H](C)[C@H](NC(=O)[C@H](CCCCN)NC(=O)[C@H](CCCCN)NC(=O)[C@H](CC(C)C)NC(=O)[C@@H](NC(=O)[C@@H](NC(=O)[C@H](C)NC(=O)[C@@H](NC(=O)[C@H](CCCCN)NC(=O)[C@H](CCCCN)NC(=O)[C@@H](NC(=O)[C@H](CC(C)C)NC(=O)[C@@H](NC(=O)[C@@H](NC(=O)CNC(=O)[C@H](CC(C)C)NC(=O)[C@@H]1CCCN1C(=O)[C@H](C)NC(=O)[C@H](CC(C)C)NC(=O)[C@@H](NC(=O)[C@@H](N)CO)[C@@H](C)CC)[C@@H](C)O)[C@@H](C)O)C(C)C)C(C)C)[C@@H](C)O)[C@@H](C)O)C(=O)N[C@@H](Cc1ccccc1)C(=O)N[C@@H](CO)C(=O)N[C@@H](CCCCN)C(=O)N[C@@H](Cc1c[nH]c2ccccc12)C(=O)N[C@@H](CCCCN)C(=O)N[C@@H](CSC1CC(=O)N(CC2CCC(C(=O)NCCOCCOCC(=O)NCCN(CC(=O)NCCN(CC(=O)NCCN(CC(=O)NCCN(CC(=O)NCCN(CC(=O)NCCN(CC(=O)NCCN(CC(=O)NCCN(CC(=O)NCCN(CC(=O)NCCN(CC(=O)NCCN(CC(=O)NCCN(CC(N)=O)C(=O)Cn3cnc4c(N)ncnc43)C(=O)Cn3cc(C)c(=O)[nH]c3=O)C(=O)Cn3cc(C)c(=O)[nH]c3=O)C(=O)Cn3cc(C)c(=O)[nH]c3=O)C(=O)Cn3cnc4c(N)ncnc43)C(=O)Cn3ccc(N)nc3=O)C(=O)Cn3cnc4c(N)ncnc43)C(=O)Cn3cnc4c(N)ncnc43)C(=O)Cn3cc(C)c(=O)[nH]c3=O)C(=O)Cn3ccc(N)nc3=O)C(=O)Cn3cc(C)c(=O)[nH]c3=O)C(=O)Cn3cc(C)c(=O)[nH]c3=O)CC2)C1=O)C(=O)O", "note": "(stereo partly drawn) [Example 22]", "values": [{"measurement": "MIC", "setting": "[1]", "result": "<0.4", "unit": "µM"}, {"measurement": "MBC", "setting": "[1]; additional 24 hours at 35° C.", "result": "<0.4", "unit": "µM"}, {"measurement": "MIC", "setting": "[2]", "result": "<0.4", "unit": "µM"}, {"measurement": "MBC", "setting": "[2]; additional 24 hours at 35° C.", "result": "<0.4", "unit": "µM"}, {"measurement": "MIC", "setting": "[3]", "result": "<0.4", "unit": "µM"}, {"measurement": "MBC", "setting": "[3]; additional 24 hours at 35° C.", "result": "<0.4", "unit": "µM"}]}
{"molecule": "Cc1cn(CC(=O)N(CCNC(=O)CN(CCNC(=O)CN(CCNC(=O)CN(CCNC(=O)CN(CCNC(=O)CN(CCNC(=O)CN(CCNC(=O)COCCOCCNC(=O)C2CCC(CN3C(=O)CC(SC[C@H](NC(=O)[C@H](CCCCN)NC(=O)[C@H](CCCCN)NC(=O)[C@@H](NC(=O)[C@@H](NC(=O)[C@H](Cc4ccccc4)NC(=O)[C@H](CCCCN)NC(=O)[C@@H](NC(=O)[C@H](CCCCN)NC(=O)[C@H](Cc4ccccc4)NC(=O)[C@H](CCCCN)NC(=O)[C@@H](N)CCCCN)C(C)C)C(C)C)C(C)C)C(=O)O)C3=O)CC2)C(=O)Cn2cnc3c(N)ncnc32)C(=O)Cn2ccc(N)nc2=O)C(=O)Cn2cc(C)c(=O)[nH]c2=O)C(=O)Cn2cc(C)c(=O)[nH]c2=O)C(=O)Cn2cc(C)c(=O)[nH]c2=O)C(=O)Cn2cnc3c(=O)[nH]c(N)nc32)CC(=O)NCCN(CC(=O)NCCN(CC(=O)NCCN(CC(=O)NCCN(CC(=O)NCCN(CC(N)=O)C(=O)Cn2ccc(N)nc2=O)C(=O)Cn2ccc(N)nc2=O)C(=O)Cn2ccc(N)nc2=O)C(=O)Cn2cnc3c(=O)[nH]c(N)nc32)C(=O)Cn2ccc(N)nc2=O)c(=O)[nH]c1=O", "note": "(stereo partly drawn) [Example 24, H2N-KKFKVKFVVKKC-smcc-Ado-ACTTTGTCGCCC-NH2]", "values": [{"measurement": "MBC", "setting": "S. aureus strain 700698R [4]", "result": "≧1600 nM"}, {"measurement": "MIC", "setting": "[5]", "result": "800/1600"}, {"measurement": "MBC", "setting": "[5]; additional 24 hours at 35° C.", "result": 1.6, "unit": "µM"}, {"measurement": "MIC", "setting": "S. aureus strain 700698 [6]", "result": "800/1600"}, {"measurement": "MBC", "setting": "S. aureus strain 700698 [6]; additional 24 hours at 35° C.", "result": 1.6, "unit": "µM"}]}
{"molecule": "CN[C@H](CC(C)C)C(=O)N[C@H]1C(=O)N[C@@H](CC(N)=O)C(=O)N[C@H]2C(=O)N[C@H]3C(=O)N[C@H](C(=O)N[C@H](C(=O)O)c4cc(O)cc(O)c4-c4cc3ccc4O)[C@H](O)c3ccc(c(Cl)c3)Oc3cc2cc(c3O[C@@H]2O[C@H](CO)[C@@H](O)[C@H](O)[C@H]2O[C@H]2C[C@](C)(N)[C@H](O)[C@H](C)O2)Oc2ccc(cc2Cl)[C@H]1O", "note": "[Vancomycin]", "values": [{"measurement": "Vancomycin MIC", "setting": "S. aureus strain 700698R [7]", "result": 11, "unit": "µg/mL"}, {"measurement": "Vancomycin MIC", "setting": "[8]", "result": "<0.5", "unit": "µg/mL"}, {"measurement": "Vancomycin MIC", "setting": "S. aureus strain 700698 [9]", "result": 2, "unit": "µg/mL"}]}
{"molecule": "H-KFFKFFKFF-ado-JTJTJJT-ado-ado-ado-TCCCTCTC-Lys-NH2 [Example 5]", "values": [{"measurement": "Bacterial growth inhibition", "setting": "E. coli K12", "result": "− (key: +: Total inhibition of bacterial growth.; (+): Significantly extended lagphase, (more than five times); −: Lagphase extended less than five times;)"}]}
{"molecule": "H-KFFKFFKFFK-ado-CACTGGAAATTT-Lys-NH2 [PNA 26]", "values": [{"measurement": "PNA concentration giving total inhibition of growth", "setting": "[10]", "result": "at least 2.5 μM"}]}
{"molecule": "H-KFFKFFKFFK-ado-TTTCATCCGCTG-Lys-NH2 [PNA 14]", "values": [{"measurement": "PNA concentration giving total inhibition of growth", "setting": "[11]", "result": "at least 1.4 μM"}]}
{"molecule": "H-LLKKLAKALKG-ahex-ado-CCA TCT AAT CCT-NH2 [PNA 228]", "values": [{"measurement": "Bacterial growth inhibition", "setting": "E. coli K12", "result": "− (key: +: Total inhibition of bacterial growth.; (+): Significantly extended lagphase, (more than five times); −: Lagphase extended less than five times;)"}]}
